Assay results from paper PMC9961652 (International Journal of Molecular Sciences, 2023).
Like-named read-outs stand apart in the source and are kept apart here.

Assays:
washed human platelets = experiment: Collagen-induced platelet aggregation, light transmission aggregometry (Born method); assay type: cell-based; conditions: for activity at 20 µM / IC50: Platelet; for activity at 20 µM: compound 20 µM, means ± SDs of three experiments, 100% = agonist alone; for IC50: Homo sapiens; for activity in collagen-induced platelet aggregation (SAR statement): relative to the quinoline analogs
Experimental: Light transmission aggregometry, i.e., the Born method, was used to determine in vitro antiplatelet aggregation activity using collagen as the agonist for platelet aggregation. Collagen was selected as the agonist, since it is the most thrombogenic component of the subendothelial layer. Collagen also serves as a substrate for platelet adhesion and as an inducer of platelet activation.
All experiments using human blood from healthy volunteers were performed according to the protocols approved by the Institutional Review Board at Cincinnati Children’s Hospital Medical Center, Cincinnati, Ohio. Each volunteer was required to sign an informed consent form approved by the IRB. Procedures for drawing human blood, isolating platelet-rich plasma (PRP), and preparing washed platelet suspensions were the same as those previously reported. […] PRP was obtained by means of the centrifugation of blood at 1400 rpm for 15 min at room temperature. PRP was centrifuged at 4000 rpm for 10 min at room temperature, and the platelet pellet was resuspended in HEPES Tyrode’s solution (pH 7.4) without calcium. Platelets were counted using Hemavet 950FS (Drew Scientific, Oxford, CT, USA), and the count was adjusted to 2.5 × 10^8/mL for aggregation studies.
The in vitro antiplatelet activity of the compounds was assayed on washed human platelets using light transmission aggregometry. Platelet aggregation was performed using a 4-channel Lumi-aggregometer (Chronolog, PA, USA) at 37 °C and stirring speed of 900 rpm. A volume of 250 µL of washed human platelets (2.5 × 10^8/mL) was pre-warmed to 37 °C along with the compounds or DMSO (0.1%) for 2 min before the addition of agonists such as collagen, AA, U46619 (a stable synthetic analog of thromboxane A2), ADP, and thrombin. For ATP secretion, platelets were pre-incubated with a luciferin/luciferase kit (Chrono-lume®) for 30 s at 37 °C before the addition of the agonist. The reactions were allowed to proceed for at least 4 min, and the results of platelet aggregation and ATP secretion were determined using Aggrolink software. Platelet aggregation was expressed as the maximum change in the light transmission, where the 100% value corresponded to treatment with the agonist alone. Compounds were evaluated in triplicate at nine compound concentrations ranging from 50 µM to 1 µM.

RhoA = experiment: RhoA-GTP formation, GST-Rhotekin effector pull-down assay in collagen-stimulated platelets; assay type: cell-based, human; conditions: 20 µM, 2 min pre-incubation; collagen 1 µg/mL for 4 min
Experimental: Next, the ability of the six compounds to suppress RhoA activity in platelets was assessed by subjecting them to a GST (Glutathione-S-transferase)-Rhotekin effector pull-down assay. The compounds were incubated with washed human platelets for 2 min before being stimulated with 1 µg/mL collagen. The analogs inhibited the activation of RhoA at the 20 µM concentration (Figure 2A,B). […] After confirming that these analogs could prevent RhoA activation and the phosphorylation of the MLC, their ability to disrupt complex-formation between RhoA and LARG was tested. […] These findings indicate that the active analogs inhibit RhoA activation by disrupting the binding between RhoA and its GEF.
(A,B) Washed human platelets were incubated with collagen (1 µg/mL) for 4 min, and the levels of RhoA-GTP formation were quantified with a GST-Rhotekin effector pull-down assay. The platelets were pre-incubated with 20 µM UC-177618, UC-177619, UC-177628, UC-177629, […], or […] for 2 min before being stimulated with collagen. The addition of ice-cold lysis buffer terminated the reaction. […] Relative amounts of the GTP-bound form of RhoA were quantified with densitometry measurements of total RhoA (T-RhoA) and normalized to untreated platelets. (C,D) The addition of 20 µM of active Rhosin-related compounds to washed human platelets 2 min before stimulation with collagen blocked the phosphorylation of the myosin light chain (p-MLC). The reactions were terminated after 4 min by adding 4x Laemmli sample buffer. The samples were processed for Western blotting and probed for MLC and p-MLC, and phosphorylation was quantified by measuring the densitometry of total MLC (T-MLC). The differences between DMSO- and Rhosin-related compounds were analyzed with t-test, and the results are shown as means ± SDs of three independent experiments. (* p < 0.05, ** p < 0.01, *** p < 0.001, and **** p < 0.0001).
The relative levels of RhoA-GTP in washed human platelets were quantified with effector domains GST-Rhotekin pull-down assays as previously reported. A volume of 250 µL of washed human platelets (2.5 × 10^8/mL) was pre-warmed to 37 °C along with the compounds or DMSO (0.1%) for 2 min before being stimulated with collagen (1 µg/mL). The reactions were terminated 4 min after collagen stimulation by adding ice-cold lysis buffer (20 mM Tris·HCl (pH 7.6), 100 mM NaCl, 1% Triton X-100, 0.2% Sodium Deoxycholate, 10 mM MgCl2, 1 mM dithiothreitol, 1x protease inhibitor cocktail, and 1x phosphatase inhibitor cocktail). The supernatants were collected and subjected to the GST-Rhotekin pull-down assay. The total cell lysates were also blotted in parallel. GTP-bound RhoA was quantitatively detected with Western blotting using an anti-RhoA antibody. The relative amounts of RhoA were quantified with densitometry measurements and normalized to the untreated platelets.

[1] = washed human platelets, read-out: % Platelet Aggregation, Collagen (1 µg/mL)
[2] = washed human platelets, read-out: % Platelet Aggregation, Collagen (5 µg/mL)
[3] = collagen-induced platelet aggregation, compounds without IC50 determination estimated from percent inhibition at 20 µM, read-out: IC50 (SAR table)
[4] = collagen 1 µg/mL, washed human platelets, dose-response curves, read-out: IC50 (95% CI) of platelet aggregation

Row | IC50 (washed human platelets; [3]) [µM] | IC50 (washed human platelets; [4]) [µM] | Compound | activity at 20 µM (washed human platelets; [1]) [%] | activity at 20 µM (washed human platelets; [2]) [%] | activity in collagen-induced platelet aggregation (SAR statement) (washed human platelets) | RhoA-GTP formation (RhoA)
1 | 3.55 | – | O=C(NNC1CCc2ccccc21)c1cc2ccccc2[nH]1 (centres unmarked) [UC-178838] | 7.3 ± 5.8 | 13.7 ± 7.9 | nearly equipotent | –
2 | > 20 | – | Cc1ccc(C(=O)NNc2cc(C)c3ccccc3n2)cc1 [UC-177635] | 79.1 ± 7 | 90.1 ± 8.3 | – | –
3 | 2.23 | 2.22 | O=C(NNc1ccnc2cc(C(F)(F)F)ccc12)c1cc2ccccc2[nH]1 [UC-177627] | 17.7 ± 11.4 | 19 ± 17.7 | – | –
4 | – | 4.9 | O=C(NNc1ccnc2ccccc12)Nc1ccccc1 [UC-177616] | 11.7 ± 2.3 | 10.6 ± 3.6 | – | –
5 | > 20 | – | Cc1cc(NNC(=O)c2cc3ccccc3[nH]2)nc2ccccc12 [UC-177630] | 73 ± 21.6 | 85 ± 15.3 | lost all activity | –
6 | 2.84 | – | O=C(NNc1ccnc2c(C(F)(F)F)cccc12)c1cc2ccccc2[nH]1 [UC-177628] | 8.7 ± 4.7 | 12.3 ± 9 | – | inhibited RhoA-GTP formation
7 | – | 5.2 | O=S(=O)(Nc1cc(C(F)(F)F)ccc1Cl)c1cccc2cccnc12 [UC-406794] | 12.7 ± 7.2 | 25 ± 5.2 | – | –
8 | > 20 | – | Cc1ccc(C(=O)NNc2ccnc3ccccc23)cc1 [UC-177631] | 87.7 ± 13.1 | 90.4 ± 3.7 | – | –
9 | > 20 | – | Cc1ccc(C(=O)NNc2ccnc3cc(C(F)(F)F)ccc23)cc1 [UC-177632] | 86.7 ± 11 | 93.1 ± 12.8 | – | –
10 | 2.39 | – | O=C(NNc1ccnc2cc(Cl)ccc12)c1cc2ccccc2[nH]1 [UC-177629] | 7.3 ± 5.9 | 10.8 ± 3 | – | inhibited RhoA-GTP formation
11 | 5.64 | – | O=C(NNc1ccnc2ccccc12)c1ccc(Cl)c(Cl)c1 [UC-177617] | 13 ± 10.4 | 26.8 ± 9 | – | –
12 | 4.59 | – | Cc1ccc(C(=O)NNc2ccnc3cc(Cl)ccc23)cc1 [UC-177634] | 17 ± 2.6 | 24.5 ± 3.9 | – | –
13 | – | 5.47 | S=C(NNc1ccnc2ccccc12)Nc1ccccc1 [UC-177615] | 9.7 ± 6 | 11.4 ± 9.9 | – | –
14 | 2.34 | 2.38 | Cc1ccc(C(=O)NNc2ccnc3c(C(F)(F)F)cccc23)cc1 [UC-177633] | 3.3 ± 3.2 | 10.1 ± 8.3 | – | inhibited RhoA-GTP formation

Further lines, the compound ahead of its results:

Row | Compound | IC50 (washed human platelets; [3]) [µM] | IC50 (washed human platelets; [4]) [µM] | activity at 20 µM (washed human platelets; [1]) [%] | activity at 20 µM (washed human platelets; [2]) [%] | activity in collagen-induced platelet aggregation (SAR statement) (washed human platelets) | RhoA-GTP formation (RhoA)
15 | CSCCNc1nc(SCCC(F)(F)F)nc2c1ncn2[C@@H]1O[C@H](COP(=O)(O)OP(=O)(O)C(Cl)(Cl)P(=O)(O)O)[C@@H](O)[C@H]1O [Cangrelor, reference compound] | – | – | 27.7 ± 2.52 | 63.3 ± 4.16 | – | –
16 | CN(Cc1ccccc1)C(=O)C(N)Cc1c[nH]c2ccccc12 (centres unmarked) [UC-651009] | – | – | 86 ± 1.7 | 89.2 ± 10.6 | – | –
17 | COc1cc(/C=N/NC(=O)C2COc3ccccc3O2)ccc1O (centres unmarked) [UC-392453] | – | – | 90.7 ± 8.5 | 94.7 ± 11.2 | – | –
18 | O=C1OCCN1Nc1ccnc2cc(C(F)(F)F)ccc12 [UC-177614] | – | – | 87.3 ± 9.6 | 90 ± 3.1 | – | –
19 | Cc1ccc(C)c(OCC(=O)N/N=C/c2cn(Cc3ccccc3)c3ccccc23)c1C [UC-436352] | – | – | 84.7 ± 15.5 | 89 ± 2.5 | – | –
20 | O=C1OCCN1Nc1ccnc2ccccc12 [UC-177613] | – | – | 84.3 ± 15.5 | 95.2 ± 4.9 | – | –
21 | COc1ccc2cc(/C=N/NC(=O)Cc3c[nH]c4ccccc34)ccc2c1 [UC-391695] | – | – | 79 ± 8 | 84.8 ± 12.1 | – | –
22 | Cc1[nH]c2ccccc2c1/C=N/NC(=O)c1cccnc1 [UC-390484] | – | – | 81 ± 14 | 88.1 ± 10 | – | –
23 | N[C@@H](Cc1c[nH]c2ccccc12)C(=O)Nc1ccc2oc(C(=O)O)cc2c1 [UC-830013] | – | – | 93 ± 10.8 | 91.3 ± 14.7 | – | –
24 | O=C1OCCN1NC1CCOc2ccc(-n3cc[nH]c3=S)cc21 (centres unmarked) [UC-177639] | – | – | 80 ± 17.3 | 90.4 ± 9.1 | – | –
25 | O=C(N/N=C/c1ccc(O)cc1)c1cc2ccccc2[nH]1 [UC-612333] | – | – | 70 ± 5.6 | 78.6 ± 14.9 | – | –
26 | Cc1[nH]c2ccccc2c1CCNC(=O)c1ccc2nccnc2c1 [UC-984842] | – | – | 91.3 ± 10.5 | 95.9 ± 6.2 | – | –
27 | CN(Nc1ccnc2cc(C(F)(F)F)ccc12)C(N)=S [UC177623] | – | – | 84.3 ± 9 | 90.7 ± 6.2 | – | –
28 | S=C(NNc1ccnc2cc(Cl)ccc12)Nc1ccccc1Cl [UC-936377] | – | – | 61.3 ± 4.5 | 71.7 ± 5.3 | – | –
